Data taken from US12286401B2, “Small molecules that sensitize HIV-1 infected cells to antibody dependent cellular cytotoxicity” (THE TRUSTEES OF THE UNIVERSITY OF PENNSYLVANIA, priority 2018, dated 2025).

What was measured:
[1] = tested on: CH58TF infected primary CD4+ T-cells; experiment: HIV+ patient sera/plasma recognition of CH58TF infected primary CD4+ T-cells (flow cytometry cell-surface staining); type: cell-based, HIV-1; conditions: Human immunodeficiency virus 1, T-cell, read-out: Fold Over DMSO (patient sera, n = 3)
Outline: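 Primary CD4+ T cells from PBMC infected with HIV-1 CH58TF for 48 h, then surface-stained with 1:1000 HIV+ plasma or 5 μg/ml 17b plus 50 μM MCG analogs or DMSO; Alexa Fluor 647 anti-human IgG detection by flow cytometry, infected cells gated p24+. Values are fold change over DMSO.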

[2] = tested on: CH58TF infected primary CD4+ T-cells; experiment: Recognition of HIV-1 infected cells by 17b (flow cytometry cell-surface staining); type: cell-based; conditions: Human immunodeficiency virus 1, T-cell, read-out: Fold Over DMSO (17b, n = 1)
Method: Cell-surface staining of primary CD4+ T cells from healthy HIV uninfected individuals or CEM-NKr cells is performed, as described in Prevost, “Influence of the Envelope gp120 Phe 43 Cavity on HIV-1 Sensitivity to Antibody-Dependent Cell-Mediated Cytotoxicity Responses,” 2017, J. Virol 91; Richard, “CD4 mimetics sensitize HIV-1-infected cells to ADCC,” 2015, Proc. Natl. Acad. Sci. USA, 112:E2687-2694; Richard, “Small CD4 Mimetics Prevent HIV-1 Uninfected Bystander CD4+ T Cell Killing Mediated by Antibody-dependent Cell-mediated Cytotoxicity,” 2016, EBioMedicine 3:122-134; Veillette, “The HIV-1 gp120 CD4-Bound Conformation Is Preferentially Targeted by Antibody-Dependent Cellular Cytotoxicity-Mediating Antibodies in Sera from HIV-1-Infected Individuals,” 2015, J. Virol., 89:545-551; Veillette, “Interaction with cellular CD4 exposes HIV-1 envelope epitopes targeted by antibody-dependent cell-mediated cytotoxicity,” 2014, J. Virol., 88:2633-2644; Richard, “Uninfected Bystander Cells Impact the Measurement of HIV-Specific Antibody-Dependent Cellular Cytotoxicity Responses,” 2018, MBio. 9(2): e00358-18; Richard, “BST-2 Expression Modulates Small CD4-Mimetic Sensitization of HIV-1-Infected Cells to Antibody-Dependent Cellular Cytotoxicity,” 2017, J. Virol. 91(11):e00219-17. Binding of HIV-1 infected cells by HIV+ sera (1:1000 dilution) or anti-Env Abs (such as 17b) is performed […] in vitro infection at 37° C. in presence of different concentrations of the MCG analogs or with equivalent volume of vehicle (DMSO). Cells infected with HIV-1 primary isolates are stained intracellularly for HIV-1 p24 using the Cytofix/Cytoperm Fixation/Permeabilization Kit (BD Biosciences, Mississauga, ON, Canada) and then fluorescent anti-p24 mAb (PE-anti-p24, clone KC57; Beckman Coulter/Immunotech, Hialeah, FL) (1:100 final concentration). The percentage of infected cells (p24^+ or GFP+ cells) is determined by gating the living cell population based on the viability dye staining. Samples are analyzed on an LSRII cytometer (BD Biosciences, Mississauga, ON, Canada) and data analysis is performed using FlowJo vX0.7 (Tree Star, Ashland, OR, USA).
(§1) Briefly, Primary CD4 T cells isolated from PBMC were infected with HIV-1CH58TF for 48 hours. For cell surface staining, 5 μg/ml 17b (FIG. 15A) or 1:1000 diluted HIV+ plasma (n=15) (FIG. 15B) were used in the presence of the different MCG analogs (50 μM), (+)-BNM-III-170 or with an equivalent volume of vehicle (DMSO). An Alexa Fluor 647-conjugated anti-human IgG secondary Ab was then used for fluorescent labeling. For ADCC (FIG. 15C), infected cells were used as target cells in a FACS-based ADCC assay that measures the killing of infected (p24+ cells). See, Madani, 2016, J. Virol., 90:5031-5046. The assay determines susceptibility to ADCC mediated by a 1/1,000 dilution of plasma from 15 HIV-1-infected individuals in the presence of the different MCG analogs (50 μM), (+)-BNM-III-170 (50 μM) or with an equivalent volume of vehicle (DMSO). Correlation between cell-surface staining with HIV+ plasma and ADCC was calculated using the Spearman rank correlation (FIG. 15D).

Solubility in PBS = type: physicochemical; conditions: Yes/NO
[3] = tested on: HIV-1JR-FL EnvΔCT expressed at the surface of HOS cells; experiment: Cell-based ELISA (CBE), 17b readout; conditions: MCG analogs 50 μM; BNM-III-170 5 μM; 2G12 and DMSO normalized
Outline: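 HOS cells transiently expressing cytoplasmic-tail-truncated HIV-1JR-FL Env were treated 30 min at room temperature with compounds (50 μM), sCD4 ([…]) or DMSO, then 1 h with 17b antibody. Bound 17b was detected by HRP-conjugated anti-Fc chemiluminescence; values are fold over BNM-III-170 (5 μM), normalized to 2G12 and DMSO.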

[4] = tested on: primary CD4+ T cells infected with CH58 TF; experiment: FACS-based ADCC assay with patient sera/plasma; type: cell-based, HIV-1; conditions: Human immunodeficiency virus 1, CD4+ T, read-out: Fold over DMSO (% ADCC with ps, n = 3)
Method: Measurement of antibody or serum-mediated ADCC is performed with a FACS-based assay as described in Prevost, “Influence of the Envelope gp120 Phe 43 Cavity on HIV-1 Sensitivity to Antibody-Dependent Cell-Mediated Cytotoxicity Responses,” 2017, J. Virol 91; Richard, “CD4 mimetics sensitize HIV-1-infected cells to ADCC,” 2015, Proc. Natl. Acad. Sci. USA, 112:E2687-2694; Richard, “Small CD4 Mimetics Prevent HIV-1 Uninfected Bystander CD4+ T Cell Killing Mediated by Antibody-dependent Cell-mediated Cytotoxicity,” 2016, EBioMedicine 3:122-134; Veillette, “The HIV-1 gp120 CD4-Bound Conformation Is Preferentially Targeted by Antibody-Dependent Cellular Cytotoxicity-Mediating Antibodies in Sera from HIV-1-Infected Individuals,” 2015, J. Virol., 89:545-551; Veillette, “Interaction with cellular CD4 exposes HIV-1 envelope epitopes targeted by antibody-dependent cell-mediated cytotoxicity,” 2014, J. Virol., 88:2633-2644; Richard, “Uninfected Bystander Cells Impact the Measurement of HIV-Specific Antibody-Dependent Cellular Cytotoxicity Responses,” 2018, MBio. 9(2): e00358-18; Richard, “BST-2 Expression Modulates Small CD4-Mimetic Sensitization of HIV-1-Infected Cells to Antibody-Dependent Cellular Cytotoxicity,” 2017, J. Virol. 91(11):e00219-17. This assay specifically measures ADCC activity against productively infected cells and is not affected by the confounding effect of uninfected bystander cells. See, Richard, “Uninfected Bystander Cells Impact the Measurement of HIV-Specific Antibody-Dependent Cellular Cytotoxicity Responses,” 2018, MBio., 9(2): e00358-18.
Briefly, primary CD4+ T cells isolated from healthy HIV-1-negative individuals or CEM-NKr cells are infected with HIV viruses. Forty-eight hours post-infection, cells are incubated with autologous PBMC (effector:target cell ratio of 10:1) in the presence of 1:1000 HIV+ sera dilution or anti-Env Abs (5 μg/mL) alone or in combination with increasing concentration of MCG analogs. Infected cells are identified by intracellular staining for HIV-1 p24 or GFP expression (for GFP expressing infectious molecular clones) and the percentage of cytotoxicity is calculated the following formula as described.
For cells infected with HIV-1 primary isolates, infected cells are identified by intracellular staining for HIV-1 p24. In that context, the percentage of cytotoxicity is calculated with the following formula by gating infected lived target cells: […]
The ADCC susceptibility of primary CD4+ T cells infected with CH58 TF mediated by HIV+ plasma+/−MCG analogs also was evaluated using a FACS-based assay as previously reported. See, Ding, 2016, J Virol., 90:2127-2134; and Richard, 2018, MBio 9.
as §1

Row | Compound | fold induction at 50 µM [1] | fold induction at 50 µM [2] | Solubility (in PBS) (Solubility in PBS) | Fold over BNM-III-170 - 17b binding (±0.05) [3] [fold] | fold induction at 50 µM [4]
1 | Cn1cnc(S(=O)(=O)N2CCC[C@H](C(=O)Oc3ccc(Cl)c(F)c3)C2)c1 [(S)-MCG-III-213-A04] | 1.07 | 1.06 | Yes | 0.10 | –
2 | CC(C)(C)OC(=O)N1CCN(S(C)(=O)=O)CC1C(=O)Nc1ccc(Cl)c(F)c1 (stereo not drawn) [MCG-III-212-A01] | 0.982 | 0.968 | Yes | 0.06 | –
3 | Cn1cnc(S(=O)(=O)N2CCNC(C(=O)Nc3ccc(Cl)c(F)c3)C2)c1 (stereo not drawn) [MCG-III-216-A04] | 0.845 | 1.24 | Yes | 0.10 | –
4 | CS(=O)(=O)N1CCC[C@H](C(=O)Oc2ccc(Cl)c(F)c2)C1 [(S)-MCG-III-213-A01] | 1.08 | 1.08 | Yes | 0.07 | –
5 | Cn1cnc(S(=O)(=O)N2CCN(C(=O)OC(C)(C)C)C(C(=O)Nc3ccc(Cl)c(F)c3)C2)c1 (stereo not drawn) [MCG-III-212-A04] | 0.924 | 1.04 | Yes | 0.06 | –
6 | CS(=O)(=O)N1CC(C(=O)Nc2ccc(Cl)c(F)c2)Cc2ccccc21 (stereo not drawn) [MCG-III-214-A01] | 1.29 | 1.39 | Yes | 0.24 | –
7 | O=C(Nc1ccc(Cl)c(F)c1)C1CNCCN1 (stereo not drawn) [MCG-III-216-A01] | 0.999 | 1.73 | Yes | 0.21 | –
8 | CS(=O)(=O)N1CCC[C@H](C(=O)Nc2ccc(F)c(Cl)c2)C1 [(S)-MCG-III-085-A02] | 1.13 | 2.15 | Yes | 0.22 | –
9 | CCS(=O)(=O)N1CCOC(C(=O)Nc2ccc(Cl)c(F)c2)C1 (stereo not drawn) [MCG-III-211-A02] | 1.81 | 3.64 | Yes | 0.33 | –
10 | COc1ccccc1NC(=O)[C@H]1CCCN(S(C)(=O)=O)C1 [(S)-MCG-III-027-C05] | 1.76 | 1.5 | Yes | – | 0.46
11 | CS(=O)(=O)N1CCNC(C(=O)Nc2ccc(Cl)c(F)c2)C1 (stereo not drawn) [MCG-III-216-A02] | 1.03 | 1.3 | Yes | 0.10 | –
12 | CCS(=O)(=O)N1CCC[C@H](C(=O)Nc2ccc(F)c(F)c2)C1 [(S)-MCG-III-085-C04] | 1.68 | 3.95 | Yes | 0.26 | –
13 | CS(=O)(=O)N1CCC[C@H](C(=O)Nc2ccc(Br)c(Cl)c2)C1 [(S)-MCG-III-085-A06] | 1.61 | 3.3 | Yes | 0.14 | –
14 | CCS(=O)(=O)N1CCC[C@H](C(=O)Nc2ccc(Cl)c(Cl)c2)C1 [(S)-MCG-III-085-C03] | 1.65 | 3.83 | Yes | 0.25 | –
15 | Cn1cnc(S(=O)(=O)N2CCOC(C(=O)Nc3ccc(Cl)c(F)c3)C2)c1 (stereo not drawn) [MCG-III-211-A04] | 1.63 | 3.61 | Yes | 0.35 | –
16 | CS(=O)(=O)N1CCC[C@H](C(=O)Nc2ccc(C(F)(F)F)cc2)C1 [(S)-MCG-III-027-A04] | 1.4 | 1.07 | Yes | 0.17 | –
17 | O=C(Nc1ccc(Cl)c(F)c1)C1CN(S(=O)(=O)c2ccccc2)CCN1 (stereo not drawn) [MCG-III-216-A03] | 1.05 | 1.47 | Yes | 0.11 | –
18 | CS(=O)(=O)N1CCOC(C(=O)Nc2ccc(Cl)c(F)c2)C1 (stereo not drawn) [MCG-III-211-A01] | 1.47 | 2.63 | Yes | 0.28 | –
